These results are taken from EP0350012A2, “Antiviral composition” (MEIJI SEIKA KAISHA LTD., priority 1988, dated 1990).

In brackets after ≈: the same amount, converted by molar mass. Read-outs that look alike come from different tables or passages of the source.

Series [1] concerns Molt-4 cells and Molt-4/HIV cells. Description: cells. The format is cell-based. Conditions: for 50% Inhibitory Concentration (IC₅₀): giant cell formation inhibition, as indicated in Example 4. The method, then:
After a test drug was dissolved in methanol medium for tissue culture was added to the solution to make a definite concentration. The concentration of methanol was finally adjusted to less than 2 %. HIV persistent injection Molt-4 cells (Molt-4/HIV cells) were precultured for 24 hours in the presence of the compound. The precultured Molt-4/HIV cells were mixed with HIV-non-infected Molt-4 cells, whereby the compound was prepared to have the same concentration as that of the preculture. The mixture was then cultured. Giant cell formation was compared between chemically intact control cells and the group to which the compound has been added 5 and 20 hours after mixing the culture to evaluate the effect of the chemical. The evaluation was made based on the method of Yamamoto et al. (Virology, 164, 542 - 546, 1988). The evaluation effect is shown in Table 1 in terms of fusion index.

For a further series, the system named is mice. The series is described as follows: Acute toxicity test, oral administration to mice. The format is in vivo. Conditions: 4g/kg administered orally, 3 mice in each group. The source says: The compounds of the present invention have low toxicity.
Where [2] appears, read: Homo sapiens, MOLT-4, read-out: 50% Inhibitory Concentration (IC₅₀).
[3] abbreviates: 12.5 µg/ml, mixed culture 5 hours.
Setting [4] is: 12.5 µg/ml, mixed culture 20 hours.
The mark [5] stands for this setting: 25 µg/ml, mixed culture 5 hours.
The mark [6] stands for this setting: 25 µg/ml, mixed culture 20 hours.
The mark [7] stands for this setting: 50 µg/ml, mixed culture 5 hours.
The mark [8] stands for this setting: 50 µg/ml, mixed culture 20 hours.
Where [9] appears, read: 100 µg/ml, mixed culture 5 hours.
Where [10] appears, read: 100 µg/ml, mixed culture 20 hours.
Setting [11] is: 200 µg/ml, mixed culture 5 hours.
[12] abbreviates: 200 µg/ml, mixed culture 20 hours.
Setting [13] is: Homo sapiens, MOLT-4, 5 h, read-out: Giant cell formation inhibitory rate (%).
[14] abbreviates: Homo sapiens, MOLT-4, 20 h, read-out: Giant cell formation inhibitory rate (%).
The mark [15] stands for this setting: Homo sapiens, MOLT-4, read-out: 50 % of inhibitory concentration (IC₅₀ value) of the giant cell formation inhibition.

As for `OC[C@@H]1[C@@H](O)[C@H](O)[C@@H](O)CN1CCOc1ccccc1` [Control, N-(2-Phenoxyethyl)-1-deoxynojirimycin, reference compound], the IC50 in series [1] (setting [2]) lay within 20 to 40 µg/mL (≈ 70.6 to 141 µM).

Take `OC[C@@H]1[C@@H](O)[C@H](O)[C@@H](O)CN1CCCc1ccccc1` [Example 1, N-(3-phenylpropyl)-1-deoxynojirimycin]: the Fusion index in series [1] (setting [3]) is 0.11; in series [1] (setting [4]), 0.34; in series [1] (setting [5]), -0.07; in series [1] (setting [6]), 0.18; in series [1] (setting [7]), 0.19; in series [1] (setting [8]), 0.13. Besides, the Fusion index is given as 0 in series [1] (setting [9]), 0.05 in series [1] (setting [10]), 0.23 in series [1] (setting [11]) and 0.18 in series [1] (setting [12]). Moreover, the “effect of inhibiting the formation of giant cells” value in series [1] (20 hours after mixing the culture) is given as “about 90%”. The inhibition at 12.5 µg/mL in series [1] (setting [13]) worked out at 79.6%; in series [1] (setting [14]) it was 82.1%. Moreover, the results for the inhibition at 25 µg/mL in series [1] (setting [13]) and in series [1] (setting [14]) were 100% and 90.5%, respectively. The inhibition at 50 µg/mL in series [1] (setting [13]) was found to be 64.8%; in series [1] (setting [14]), 93.2%. For the same compound, the inhibition at 100 µg/mL in series [1] (setting [13]) came out at 100%; in series [1] (setting [14]), 97.4%. Besides, the inhibition at 200 µg/mL in series [1] (setting [13]) is 57.4%; in series [1] (setting [14]), 90.5%. Also, the IC50 in series [1] (setting [15]) was 5 to 10 µg/mL (≈ 17.8 to 35.5 µM). Moreover, in series [1] (compared to the control cells), the “microscopic observation of giant cell formation” value is recorded as “clearly inhibited the formation of giant cells”.

With `OC[C@@H]1[C@@H](O)[C@H](O)[C@@H](O)CN1CC=Cc1ccccc1` [Example 2, N-(3-phenyl-2-propenyl)-1-deoxynojirimycin], the Fusion index is on record as 0.14 in series [1] (setting [3]); -0.03 in series [1] (setting [4]); 0.17 in series [1] (setting [5]); -0.08 in series [1] (setting [6]); 0.06 in series [1] (setting [7]); -0.07 in series [1] (setting [8]). Also, the Fusion index in series [1] (setting [9]) is reported as -0.10; in series [1] (setting [10]) it was 0.10; in series [1] (setting [11]), -0.08; in series [1] (setting [12]) it was 0.10. For the same compound, the inhibition at 12.5 µg/mL in series [1] (setting [13]) is 74.1%; in series [1] (setting [14]), 100%. Besides, the inhibition at 25 µg/mL in series [1] (setting [13]) was determined as 68.5%; in series [1] (setting [14]), 100%. For the same compound, the inhibition at 50 µg/mL was found to be 88.9% in series [1] (setting [13]) and 100% in series [1] (setting [14]). Further, the inhibition at 100 µg/mL in series [1] (setting [13]) came out at 100%; in series [1] (setting [14]) it was 94.7%. Besides, the inhibition at 200 µg/mL in series [1] (setting [13]) was 100%; in series [1] (setting [14]) it was 94.7%. Further, the IC50 in series [1] (setting [15]) was in the range of 2.5 to 5 µg/mL (≈ 8.95 to 17.9 µM). For the same compound, in series [1] (Table 2), the “giant cell formation inhibiting effect” value was 90-100%. In addition, the “survival in the acute toxicity test” value in the series on mice was “all of the tested mice survived”.

As for `OC[C@@H]1[C@@H](O)[C@H](O)[C@@H](O)CN1CCC(c1ccccc1)c1ccccc1` [Example 3, N-(3,3-diphenyl-propyl)-1-deoxynojirimycin], the Fusion index is 0.26 in series [1] (3.13 µg/ml, mixed culture 5 hours); 1.50 in series [1] (3.13 µg/ml, mixed culture 20 hours); 0.54 in series [1] (6.25 µg/ml, mixed culture 5 hours); 2.16 in series [1] (6.25 µg/ml, mixed culture 20 hours); 0.26 in series [1] (setting [3]); 1.37 in series [1] (setting [4]). Further, the Fusion index is on record as 0.50 in series [1] (setting [5]), 0.89 in series [1] (setting [6]), 0.32 in series [1] (setting [7]) and 0.62 in series [1] (setting [8]). The inhibition at 3.13 µg/mL in series [1] (setting [13]) amounted to 51.9%; in series [1] (setting [14]), 21.1%. For the same compound, the inhibition at 6.25 µg/mL in series [1] (setting [13]) and in series [1] (setting [14]) was 0% each time. Also, the inhibition at 12.5 µg/mL in series [1] (setting [13]) came to 51.9%; in series [1] (setting [14]) it was 27.9%. For the same compound, the inhibition at 25 µg/mL worked out at 7.4% in series [1] (setting [13]) and 53.2% in series [1] (setting [14]). Besides, the inhibition at 50 µg/mL in series [1] (setting [13]) came out at 40.7%; in series [1] (setting [14]), 67.4%.

With `OC[C@@H]1[C@@H](O)[C@H](O)[C@@H](O)CN1CC=Cc1cccc(F)c1` [Example 4, N-[3-(3-fluorophenyl) 2-propenyl]-1-deoxynojirimycin], the Fusion index in series [1] (2.5 µg/ml, mixed culture 20 hours) is 1.38; in series [1] (5 µg/ml, mixed culture 20 hours) it was 1.04; in series [1] (10 µg/ml, mixed culture 20 hours), 0.52; in series [1] (20 µg/ml, mixed culture 20 hours) it was 0.32; in series [1] (40 µg/ml, mixed culture 20 hours), 0.01. Besides, the inhibition at 2.5 µg/mL in series [1] (setting [14]) was 28%. The inhibition at 5 µg/mL in series [1] (setting [14]) worked out at 46%. Also, in series [1] (setting [14]), the inhibition at 10 µg/mL turned out to be 73%. In addition, the inhibition at 20 µg/mL in series [1] (setting [14]) amounted to 83%. In series [1] (setting [14]), the inhibition at 40 µg/mL was determined as 99%. Further, the IC50 in series [1] (setting [15]) is 5 to 10 µg/mL (≈ 16.8 to 33.6 µM).

`OC[C@@H]1[C@@H](O)[C@H](O)[C@@H](O)CN1CCCCc1ccccc1` [Example 5, N-(4-Phenylbutyl)-1-deoxynojirimycin]: the IC50 in series [1] (setting [2]) fell in the range of 5 to 10 µg/mL (≈ 16.9 to 33.9 µM).

For `OC[C@@H]1[C@@H](O)[C@H](O)[C@@H](O)CN1CC=Cc1cccc(Cl)c1` [Example 6, N-[3-(3-Chlorophenyl)-2-propenyl]-1-deoxynojirimycin], the “50% Inhibitory Concentration (IC₅₀)” value in series [1] is 50 µg/mL.

Consider `OC[C@@H]1[C@@H](O)[C@H](O)[C@@H](O)CN1CC=Cc1ccccc1Cl` [Example 7, N-[3-(2-Chlorophenyl)-2-propenyl]-1-deoxynojirimycin], for which the “50% Inhibitory Concentration (IC₅₀)” value in series [1] is 60 µg/mL.

Consider `OC[C@@H]1[C@@H](O)[C@H](O)[C@@H](O)CN1CCC=Cc1ccc(Cl)cc1` [Example 8, N-[4-(4-Chlorophenyl)-3-butenyl]-1-deoxynojirimycin], for which the “50% Inhibitory Concentration (IC₅₀)” value in series [1] stood at 70 µg/mL.

Consider `OC[C@@H]1[C@@H](O)[C@H](O)[C@@H](O)CN1CC=C(c1ccc(F)cc1)c1ccc(F)cc1` [Example 9, N-[3,3-Di(4-fluorophenyl)-2-propenyl]-1-deoxynojirimycin], for which the “50% Inhibitory Concentration (IC₅₀)” value in series [1] was over 100 µg/mL.

With `Cc1ccc(CCCN2C[C@H](O)[C@@H](O)[C@H](O)[C@H]2CO)cc1` [Example 10, N-[3-(4-Methylphenyl)-propyl]-1-deoxynojirimycin], the IC50 in series [1] (setting [2]) lay within 5 to 10 µg/mL (≈ 16.9 to 33.9 µM).

For `OC[C@@H]1[C@@H](O)[C@H](O)[C@@H](O)CN1CCCc1ccc(F)cc1` [Example 11, N-[3-(4-Fluorophenyl)-propyl]-1-deoxynojirimycin], the IC50 in series [1] (setting [2]) was 5 to 10 µg/mL (≈ 16.7 to 33.4 µM).

`OC[C@@H]1[C@@H](O)[C@H](O)[C@@H](O)CN1CC=Cc1ccc(F)cc1` [Example 12, N-[3(4-Fuluorophenyl)-2-propenyl]-1-deoxynojirimycin]: the “50% Inhibitory Concentration (IC₅₀)” value in series [1] came to 10 µg/mL.

Turning to `OC[C@@H]1[C@@H](O)[C@H](O)[C@@H](O)CN1CC=Cc1ccccc1F` [Example 13, N-[3-(2-Fluorophenyl)-2-propenyl]-1-deoxynojirimycin], in series [1] (setting [2]), the IC50 was 2.5 to 5 µg/mL (≈ 8.41 to 16.8 µM).

In the case of `OC[C@@H]1[C@@H](O)[C@H](O)[C@@H](O)CN1CCC=Cc1ccccc1F` [Example 14, N-[4-(2-Fluorophenyl)-3-butenyl]-1-deoxynojirimycin], in series [1] (setting [2]), the IC50 was in the range of 5 to 10 µg/mL (≈ 16.1 to 32.1 µM).

`OC[C@@H]1[C@@H](O)[C@H](O)[C@@H](O)CN1CCCC(F)(F)F` [Example 15, N-(4,4,4-Trifluorobutyl)-1-deoxynojirimycin]: the IC50 in series [1] (setting [2]) was in the range of 5 to 10 µg/mL (≈ 18.3 to 36.6 µM).

For `OC[C@@H]1[C@@H](O)[C@H](O)[C@@H](O)CN1CCCCC(F)(F)F` [Example 16, N-(5,5,5-Trifluoropentyl)-1-deoxynojirimycin], the IC50 in series [1] (setting [2]) was 2.5 to 5 µg/mL (≈ 8.7 to 17.4 µM).
